In patent US20040116480A1, “Oxime ether compound and agricultural or horticultural bactericide” (priority 2001, published 2004) one finds pest or weed control data, which are given here for 8 molecules.

Molecules are shown by their SMILES.

The test system of this assay is kidney bean gray mold fungus (Botrytis cinerea). Nature of the assay: Test on kidney bean gray mold control, dipped flowers on detached leaves. The class given is in vivo. The settings on record: 168 h, 50 ppm active ingredient, kidney bean flowers (Nagauzura) dipped, then spore solution sprayed, 20° C., 7 days, lesion diameter, read-out: control efficacy. How it is done: The following test examples show the efficacy of the compounds of the present invention as active ingredients of various agents for controlling plant diseases. The control efficacy was determined by visual observation of the infested states of test plants, that is, degrees of legions and growth of colonies on leaves and stalks, when they were examined, in comparison with those of control plants.
Test on Kidney Bean Gray Mold Control
Flowers of kidney bean (variety: Nagauzura) grown in a flat vessel for culturing seedlings were cut, and dipped into a solution of an emulsifiable concentrate prepared for a compound of the present invention, diluted to a concentration of 50 ppm based on the active ingredient. After the dipping, the flowers were dried at room temperature. Then a spore solution of kidney bean gray mold fungus (Botrytis cinerea) was sprayed onto the flowers. The treated flowers were placed on leaves detached from healthy kidney bean plants, placed in a temperature-controlled room at 20° C. with high humidity and repeated lighting of 12-hour intervals, and incubated for 7 days. Diameters of the legions on the leaves were measured and compared with those of the control healthy leaves to determine the control efficacy.
Regarding `COc1nccc(C)c1CO/N=C/c1cc(C)cc(C)n1` [II-3, 4,6-dimethyl-2-pyridinecarboxyaldehyde O-[(2-methoxy-4-methyl-3-pyridinyl)methyl]oxime], the pest or weed control at 50 ppm was at least 75%. On to `COc1ccnc(OC)c1CO/N=C(\C)c1cc(C)cc(C)n1` [II-14, 1-(4,6-dimethyl-2-pyridinyl)ethanone O-[(2,4-dimethoxy-3-pyridinyl)methyl]oxime], for which the pest or weed control at 50 ppm was at least 75%.

As to `COc1ncnc(OC)c1CO/N=C(\C)c1cc(C)cc(C)n1` [II-17, 1-(4,6-dimethyl-2-pyridinyl)ethanone O-[(4,6-dimethoxy-5-pyrimidinyl)methyl]oxime], the pest or weed control at 50 ppm was at least 75%. The same measure for `COc1ncnc(OC)c1CO/N=C/c1cc(Cl)cc(C)n1` [II-20, 4-chloro-6-methyl-2-pyridinecarboxyaldehyde O-[(4,6-dimethoxy-5-pyrimidinyl)methyl]oxime]: at least 75%; for `COc1ccnc(OC)c1CO/N=C/c1cc(C#N)cc(C)n1` [II-27, 4-cyano-6-methyl-2-pyridinecarboxyaldehyde O-[(2-,4-dimethoxy-3-pyridinyl)methyl]oxime]: at least 75%. In the case of `COc1nccc(C)c1CO/N=C/c1cc(C#N)cc(C)n1` [II-28, 4-cyano-6-methyl-2-pyridinecarboxyaldehyde O-[(2-methoxy-4-methyl-3-pyridinyl)methyl]oxime], the pest or weed control at 50 ppm is at least 75%.

In the case of `COc1ncnc(OC)c1CO/N=C/c1cc(C#N)cc(C)n1` [II-29, 4-cyano-6-methyl-2-pyridinecarboxyaldehyde O-[(4,6-dimethoxy-5-pyrimidinyl)methyl]oxime], the pest or weed control at 50 ppm was at least 75%. The same measure for `COc1ncnc(OC)c1CO/N=C/c1cc(C(F)(F)F)cc(C)n1` [II-36, 6-methyl-4-trifluoromethyl-2-pyridinecarboxyaldehyde O-[(4,6-dimethoxy-5-pyrimidinyl)methyl]oxime]: at least 75%.
